Test [1] concerns HSC-2. The experiment in a line: Cytotoxicity against human HSC2 cells at 100 uM after 24 hrs by MTT assay. The class given is functional, cell-based. A general note: Tetrazolium dyes change colour on reduction, which living cells bring about.
The test system of test [2] is HSC-2. The experiment in a line: Cytotoxicity against human HSC2 cells after 24 hrs by MTT assay. To be noted: HSC-2, 24 h. The test is classed as functional, cell-based.

The source made the active and inactive calls. No cut-off for these calls is given here.

Consider `CC1(C)CC[C@@]23CC[C@]4(C)[C@@](OC2=O)([C@@H]3C1)[C@H]1O[C@H]1[C@@H]1[C@@]2(C)CC[C@H](O[C@@H]3O[C@H](C(=O)O)[C@@H](O)[C@H](O[C@@H]5O[C@H](CO)[C@H](O)[C@H](O)[C@H]5O)[C@H]3O[C@@H]3O[C@H](CO)[C@@H](O)[C@H](O)[C@H]3O)C(C)(C)[C@@H]2CC[C@]14C`, for which, in the test on HSC-2 [1], the outcome was inactive. Same read-out and setting: the same measure for `CC1(C)CC[C@]2(C(=O)O[C@@H]3O[C@H](CO)[C@@H](O)[C@H](O)[C@H]3O)CC=C3[C@](C)([C@@H]2C1)[C@H]1O[C@H]1[C@@H]1[C@@]2(C)CC[C@H](O[C@@H]4O[C@H](C(=O)O)[C@@H](O)[C@H](O)[C@H]4O)C(C)(C)[C@@H]2CC[C@@]31C`: “inactive”; for `CC1(C)CC[C@@]23CC[C@]4(C)[C@@](OC2=O)([C@@H]3C1)[C@H]1O[C@H]1[C@@H]1[C@@]2(C)CC[C@H](O[C@@H]3O[C@H](C(=O)O)[C@@H](O)[C@H](O)[C@H]3O)C(C)(C)[C@@H]2CC[C@]14C`: “inactive”.

As for `CC1(C)CC[C@@]23CC[C@]4(C)[C@@](OC2=O)([C@@H]3C1)[C@H]1O[C@H]1[C@@H]1[C@@]2(C)CC[C@H](O)C(C)(C)[C@@H]2CC[C@]14C`, the concentration for half-maximal inhibition (IC50) with HSC-2 [2] is 21 µM. `COc1cc([C@@H]2c3cc4c(cc3[C@@H](O[C@@H]3O[C@@H]5CO[C@@H](C)O[C@H]5[C@H](O)[C@H]3O)[C@H]3COC(=O)[C@H]23)OCO4)cc(OC)c1O` [ETOPOSIDE] had an IC50 in the test on HSC-2 [2] of 24 µM. On the same count and under the same terms, the same measure for `CC1(C)CC[C@]2(C(=O)O)CC=C3[C@](C)([C@@H]2C1)[C@H]1O[C@H]1[C@@H]1[C@@]2(C)CC[C@H](O)C(C)(C)[C@@H]2CC[C@@]31C`: 21 µM.

Usually IC50 stands for the point on the concentration scale where inhibition reaches its midpoint. A higher IC50 goes with a need for much substance.

The values above are taken from ChEMBL document CHEMBL1158107, “Oleanane and taraxerane glycosides from the roots of Gomphrena macrocephala” (J Nat Prod, 2006).
